Here are results for 16 compounds from patent US9409952B2, “Peptide-compound cyclization method” (Chugai Seiyaku Kabushiki Kaisha, priority 2011, dated 2016).

A short description of series [1]: PAMPA (parallel artificial membrane permeability assay). In kind it is in vitro ADME. The following applies: PAMPA; membrane permeation rate (Pe); 50 mM MOPSO buffer pH 6.5 with 5.0% glycocholic acid, 37° C., 18 hours; read-out: iPAMPA Pe. Summed up: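 Artificial membrane was 10% (w/v) egg lecithin plus 0.5% (w/v) cholesterol in dodecane on a PVDF filter. A 10 mM DMSO stock was added at 0.5% (v/v) to donor buffer (50 mM MOPSO, pH 6.5, 5.0% glycocholic acid). After 18 h at 37 °C, LC/MS or LC/UV gave donor and acceptor levels for Pe.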

Series [2] is described as follows: Metabolic stability in human hepatic microsome. In kind it is in vitro ADME. Particulars: microsomes, pH 7.4; human hepatic microsome, NADPH(+); read-out: CL NADPH(+).

Starred links: 1 amine or outer side, 2 acyl side, 3 side chain; linkers in the order of their positions; H or OH if unused. Positions of bridges follow the written chain, without caps; N, C: chain ends. Non-standard residues stand in square brackets, D forms with d. Residues, ends and D or L forms follow the SMILES beside them. *: point of attachment. NMeF = CN[C@@H](Cc1ccccc1)C(=O)O; NMeI = CC[C@H](C)[C@H](NC)C(=O)O; NMeβAla = CN(CCC(=O)[*:2])[*:1]; NMeL = CN[C@@H](CC(C)C)C(=O)O; NMeV = CN[C@H](C(=O)O)C(C)C; NMeA = CN[C@@H](C)C(=O)O; Piperidide = C1CCN(*)CC1; dNMeA = CN[C@H](C)C(=O)O; Sar = CNCC(=O)O

Consider `CC(C)C[C@H]1C(=O)N(C)[C@@H](CC(C)C)C(=O)N[C@H](C(=O)N(C)[C@@H](Cc2ccccc2)C(=O)N[C@@H](C)C(=O)N2CCCCC2)CC(=O)N(C)[C@@H](C)C(=O)N(C)[C@@H](Cc2ccccc2)C(=O)N(C)[C@@H](CC(C)C)C(=O)N[C@@H]([C@@H](C)O)C(=O)N(C)[C@@H](C)C(=O)N[C@@H](C(C)C)C(=O)N1C` [DP-199] ([NMeA][NMeF][NMeL]T[NMeA]V[NMeL][NMeL]D[NMeF]A-Piperidide; lactam N-9), for which, in series [1], the Papp at 18 hours, 50 µM amounted to 59 ×10⁻⁶ cm/s. The microsomal CLint at 1 uM in series [2] was 170 µL/min/mg.

For the compound `CC(C)C[C@H]1C(=O)N[C@@H](C(C)C)C(=O)N(C)[C@@H](Cc2ccccc2)C(=O)N(C)[C@@H](C)C(=O)N[C@@H](Cc2ccccc2)C(=O)N[C@H](C(=O)N(C)[C@@H](Cc2ccccc2)C(=O)N[C@@H](C)C(=O)N2CCCCC2)CC(=O)N(C)CCC(=O)N[C@@H]([C@@H](C)O)C(=O)N(C)CC(=O)N1C` [DP-200] ([NMeβAla]T[Sar][NMeL]V[NMeF][NMeA]FD[NMeF]A-Piperidide; lactam N-9), the Papp at 18 hours, 50 µM in series [1] came to 22 ×10⁻⁶ cm/s. In addition, the microsomal CLint at 1 uM in series [2] was determined as 57 µL/min/mg.

With `CC(C)C[C@H]1C(=O)N(C)[C@@H](Cc2ccccc2)C(=O)N[C@@H]([C@@H](C)O)C(=O)N(C)[C@@H](C)C(=O)N[C@@H](C(C)C)C(=O)N(C)[C@@H](CC(C)C)C(=O)N(C)[C@@H](CC(C)C)C(=O)N[C@H](C(=O)N(C)[C@@H](Cc2ccccc2)C(=O)N[C@@H](C)C(=O)N2CCCCC2)CC(=O)N(C)CCC(=O)N1C` [DP-201] ([NMeβAla][NMeL][NMeF]T[NMeA]V[NMeL][NMeL]D[NMeF]A-Piperidide; lactam N-9), the Papp at 18 hours, 50 µM in series [1] came out at 27 ×10⁻⁶ cm/s. Besides, the microsomal CLint at 1 uM in series [2] was determined as 209 µL/min/mg.

For the compound `CC(C)C[C@H]1C(=O)N(C)[C@@H](Cc2ccccc2)C(=O)N[C@@H]([C@@H](C)O)C(=O)N(C)[C@@H](C)C(=O)N(C)[C@@H](CC(C)C)C(=O)N[C@@H](C(C)C)C(=O)N(C)[C@@H](CC(C)C)C(=O)N[C@H](C(=O)N(C)[C@@H](Cc2ccccc2)C(=O)N[C@@H](C)C(=O)N2CCCCC2)CC(=O)N(C)CC(=O)N1C` [DP-202] ([Sar][NMeL][NMeF]T[NMeA][NMeL]V[NMeL]D[NMeF]A-Piperidide; lactam N-9), the Papp at 18 hours, 50 µM in series [1] came out at 55 ×10⁻⁶ cm/s. Moreover, the microsomal CLint at 1 uM in series [2] was determined as 134 µL/min/mg.

Turning to `CC(C)C[C@H]1C(=O)N[C@H](C(=O)N(C)[C@@H](Cc2ccccc2)C(=O)N(C)[C@@H](Cc2ccccc2)C(=O)N[C@@H](C)C(=O)N2CCCCC2)CC(=O)N[C@@H](C)C(=O)N(C)[C@@H](Cc2ccccc2)C(=O)N(C)[C@@H](C)C(=O)N(C)[C@@H](CC(C)C)C(=O)N[C@@H]([C@@H](C)O)C(=O)N(C)[C@@H](C)C(=O)N(C)[C@@H](CC(C)C)C(=O)N[C@@H](C(C)C)C(=O)N1C` [DP-203] (A[NMeF][NMeA][NMeL]T[NMeA][NMeL]V[NMeL]D[NMeF][NMeF]A-Piperidide; lactam N-10), the Papp at 18 hours, 50 µM in series [1] was 11 ×10⁻⁶ cm/s. Besides, in series [2], the microsomal CLint at 1 uM amounted to 18 µL/min/mg.

`CC(C)C[C@H]1C(=O)N[C@H](C(=O)N(C)[C@@H](Cc2ccccc2)C(=O)N(C)[C@@H](Cc2ccccc2)C(=O)N[C@@H](C)C(=O)N2CCCCC2)CC(=O)N[C@H](C)C(=O)N(C)[C@@H](C)C(=O)N(C)[C@@H](Cc2ccccc2)C(=O)N(C)[C@@H](CC(C)C)C(=O)N[C@@H]([C@@H](C)O)C(=O)N(C)[C@@H](C)C(=O)N(C)[C@@H](CC(C)C)C(=O)N[C@@H](C(C)C)C(=O)N1C` [DP-204] ([dA][NMeA][NMeF][NMeL]T[NMeA][NMeL]V[NMeL]D[NMeF][NMeF]A-Piperidide; lactam N-10): in series [1], the Papp at 18 hours, 50 µM came out at 22 ×10⁻⁶ cm/s. Besides, in series [2], the microsomal CLint at 1 uM was found to be 48 µL/min/mg.

Take `CC(C)C[C@H]1C(=O)N[C@@H]([C@@H](C)O)C(=O)N(C)[C@@H](Cc2ccccc2)C(=O)N(C)[C@@H](CC(C)C)C(=O)NCC(=O)N(C)[C@@H](C(C)C)C(=O)N[C@@H](Cc2ccccc2)C(=O)N[C@H](C(=O)N(C)[C@@H](Cc2ccccc2)C(=O)N(C)[C@@H](Cc2ccccc2)C(=O)N[C@@H](C)C(=O)N2CCCCC2)CC(=O)N[C@H](C(C)C)C(=O)N[C@@H](C(C)C)C(=O)N1C` [DP-205] ([dV]V[NMeL]T[NMeF][NMeL]G[NMeV]FD[NMeF][NMeF]A-Piperidide; lactam N-10): the Papp at 18 hours, 50 µM in series [1] is 0.12 ×10⁻⁶ cm/s. For the same compound, the microsomal CLint at 1 uM in series [2] is 29 µL/min/mg.

`CC(C)C[C@H]1C(=O)N(C)[C@@H](CC(C)C)C(=O)N[C@@H]([C@@H](C)O)C(=O)N(C)[C@@H](Cc2ccccc2)C(=O)N(C)[C@@H](CC(C)C)C(=O)N[C@H](C(=O)N(C)[C@@H](Cc2ccccc2)C(=O)N(C)[C@@H](Cc2ccccc2)C(=O)N[C@@H](C)C(=O)N2CCCCC2)CC(=O)N(C)[C@H](C)C(=O)N(C)[C@@H](Cc2ccccc2)C(=O)N(C)[C@@H](CC(C)C)C(=O)N[C@@H](C)C(=O)N1C` [DP-207] ([dNMeA][NMeF][NMeL]A[NMeL][NMeL]T[NMeF][NMeL]D[NMeF][NMeF]A-Piperidide; lactam N-10): the Papp at 18 hours, 50 µM in series [1] was found to be 0.16 ×10⁻⁶ cm/s. In addition, the microsomal CLint at 1 uM in series [2] was determined as 12 µL/min/mg.

`CC(C)C[C@H]1C(=O)N[C@H](C(=O)N(C)[C@@H](Cc2ccccc2)C(=O)N(C)[C@@H](Cc2ccccc2)C(=O)N[C@@H](C)C(=O)N2CCCCC2)CC(=O)N[C@@H](C)C(=O)N(C)[C@@H](Cc2ccccc2)C(=O)N(C)[C@@H](CC(C)C)C(=O)N[C@@H]([C@@H](C)O)C(=O)N(C)[C@@H](C)C(=O)N(C)[C@@H](CC(C)C)C(=O)N[C@@H](C(C)C)C(=O)N1C` [DP-208] (A[NMeF][NMeL]T[NMeA][NMeL]V[NMeL]D[NMeF][NMeF]A-Piperidide; lactam N-9): in series [1], the Papp at 18 hours, 50 µM worked out at 27 ×10⁻⁶ cm/s. Besides, the microsomal CLint at 1 uM in series [2] turned out to be 34 µL/min/mg.

Consider `CC(C)C[C@H]1C(=O)N[C@@H](C(C)C)C(=O)N(C)[C@@H](Cc2ccccc2)C(=O)NCC(=O)N[C@H](C(=O)N(C)[C@@H](Cc2ccccc2)C(=O)N(C)[C@@H](Cc2ccccc2)C(=O)N[C@@H](C)C(=O)N2CCCCC2)CC(=O)N[C@H](C)C(=O)N[C@@H]([C@@H](C)O)C(=O)N(C)[C@@H](C)C(=O)N(C)[C@@H](Cc2ccccc2)C(=O)N1C` [DP-209] ([dA]T[NMeA][NMeF][NMeL]V[NMeF]GD[NMeF][NMeF]A-Piperidide; lactam N-9), for which the Papp at 18 hours, 50 µM in series [1] stood at 42 ×10⁻⁶ cm/s. The microsomal CLint at 1 uM in series [2] was 98 µL/min/mg.

As for `CC(C)C[C@H]1C(=O)N[C@H](C(=O)N(C)[C@@H](Cc2ccccc2)C(=O)N(C)[C@@H](Cc2ccccc2)C(=O)N[C@@H](C)C(=O)N2CCCCC2)CC(=O)N(C)[C@@H](C)C(=O)N(C)[C@@H](Cc2ccccc2)C(=O)N[C@@H]([C@@H](C)O)C(=O)N(C)[C@@H](C)C(=O)N(C)[C@@H](CC(C)C)C(=O)N(C)[C@@H](CC(C)C)C(=O)N[C@@H](C(C)C)C(=O)N1C` [DP-211] ([NMeA][NMeF]T[NMeA][NMeL][NMeL]V[NMeL]D[NMeF][NMeF]A-Piperidide; lactam N-9), in series [1], the Papp at 18 hours, 50 µM amounted to 3.2 ×10⁻⁶ cm/s. In series [2], the microsomal CLint at 1 uM is 178 µL/min/mg.

Regarding `CC(C)C[C@H]1C(=O)N(C)[C@@H](CC(C)C)C(=O)N[C@@H](C(C)C)C(=O)N[C@H](C(=O)N(C)[C@@H](Cc2ccccc2)C(=O)N(C)[C@@H](Cc2ccccc2)C(=O)N[C@@H](C)C(=O)N2CCCCC2)CC(=O)N(C)CCC(=O)N(C)[C@@H](C)C(=O)N(C)[C@@H](Cc2ccccc2)C(=O)N[C@@H]([C@@H](C)O)C(=O)N(C)CC(=O)N1C` [DP-212] ([NMeβAla][NMeA][NMeF]T[Sar][NMeL][NMeL]VD[NMeF][NMeF]A-Piperidide; lactam N-9), in series [1], the Papp at 18 hours, 50 µM was found to be 29 ×10⁻⁶ cm/s. Moreover, the microsomal CLint at 1 uM in series [2] stood at 27 µL/min/mg.

Consider `CC(C)C[C@H]1C(=O)N(C)[C@@H](Cc2ccccc2)C(=O)NCC(=O)N(C)[C@@H](Cc2ccccc2)C(=O)N(C)[C@@H](C)C(=O)N[C@@H]([C@@H](C)O)C(=O)N[C@H](C(=O)N(C)[C@@H](Cc2ccccc2)C(=O)N(C)[C@@H](Cc2ccccc2)C(=O)N[C@@H](C)C(=O)N2CCCCC2)CC(=O)N(C)[C@H](C)C(=O)N[C@@H](C(C)C)C(=O)N1C` [DP-213] ([dNMeA]V[NMeL][NMeF]G[NMeF][NMeA]TD[NMeF][NMeF]A-Piperidide; lactam N-9), for which the Papp at 18 hours, 50 µM in series [1] came out at 55 ×10⁻⁶ cm/s. Besides, the microsomal CLint at 1 uM in series [2] was 71 µL/min/mg.

Turning to `CC(C)C[C@H]1C(=O)N[C@@H]([C@@H](C)O)C(=O)N(C)[C@@H](C)C(=O)N(C)[C@@H](CC(C)C)C(=O)N[C@@H](C(C)C)C(=O)N[C@H](C(=O)N(C)[C@@H](Cc2ccccc2)C(=O)N(C)[C@@H](Cc2ccccc2)C(=O)N[C@@H](C)C(=O)N2CCCCC2)CC(=O)N(C)[C@H](C)C(=O)N(C)[C@@H](Cc2ccccc2)C(=O)N(C)CC(=O)N1C` [DP-214] ([dNMeA][NMeF][Sar][NMeL]T[NMeA][NMeL]VD[NMeF][NMeF]A-Piperidide; lactam N-9), the Papp at 18 hours, 50 µM in series [1] amounted to 34 ×10⁻⁶ cm/s. Further, the microsomal CLint at 1 uM in series [2] was 33 µL/min/mg.

Take `CC[C@H](C)[C@H]1C(=O)N[C@H](C(=O)N2CCCCC2)CC(=O)N[C@H](C)C(=O)N[C@@H]([C@@H](C)O)C(=O)N(C)[C@@H](Cc2ccccc2)C(=O)N[C@@H](CC(C)C)C(=O)N2CCC[C@H]2C(=O)N(C)[C@@H](C(C)C)C(=O)N[C@@H](Cc2ccccc2)C(=O)N(C)CC(=O)N(C)[C@@H](CC(C)C)C(=O)N[C@@H](C)C(=O)N1C` [DP-215] ([dA]T[NMeF]LP[NMeV]F[Sar][NMeL]A[NMeI]D-Piperidide; lactam N-12): the Papp at 18 hours, 50 µM in series [1] came to 24 ×10⁻⁶ cm/s. Further, the microsomal CLint at 1 uM in series [2] was found to be 35 µL/min/mg.

With `CC[C@H](C)[C@H]1C(=O)N[C@H](C(=O)N2CCCCC2)CC(=O)N[C@H](C(C)C)C(=O)N[C@@H](CC(C)C)C(=O)N(C)[C@@H](Cc2ccccc2)C(=O)N[C@@H]([C@@H](C)O)C(=O)N(C)[C@@H](C)C(=O)N[C@@H](C(C)C)C(=O)N[C@@H](Cc2ccccc2)C(=O)N(C)[C@@H](CC(C)C)C(=O)N[C@@H](CC(C)C)C(=O)NCC(=O)N1C` [DP-216] ([dV]L[NMeF]T[NMeA]VF[NMeL]LG[NMeI]D-Piperidide; lactam N-12), in series [1], the Papp at 18 hours, 50 µM was 4.5 ×10⁻⁶ cm/s. In series [2], the microsomal CLint at 1 uM was 43 µL/min/mg.
